Assay results taken from patent US20220117920A1, “N-Aryl Benzenesulfonamides as Protonophores for the Treatment of Cancers, Metabolic Diseases and Traumatic Brain Injury” (University of Kentucky Research Foundation, priority 2019, published 2022).

Experiments:
[1] = test system: Wnt signaling; experiment: Wnt reporter assay, stable HEK293T cell line containing TOPFlash reporter, LiCl-activated; type: cell-based, human; conditions: concentration not given
Description: To identify novel Wnt regulators by high throughput screening, a stable HEK293T cell line containing the TOPFlash reporter was established. To identify Wnt inhibitors that targeted molecular events downstream of β-catenin, we treated these cells with lithium chloride to inhibit GSK3 and to stabilize β-catenin. […] We also validated the results by transient transfection of Super 8× TOPFlash or 8× FOPFlash into HEK293T cells. […] Since the results from the stable and transient transfection are compatible, we used stable cell lines for all of the other experiments.
Reporter assay. Wnt reporter assay and cell staining assay have been described previously. We subcloned Super 8×TOPFlash (provided by Professor Randall Moon, University of Washington) into the pGL4.83 [hRlucP/Puro] Vector and transfected it into HEK293T cells. A stable HEK293T cell line containing the TOPFlash reporter was established using puromycin selection. To screen Wnt inhibitors that block the downstream signaling transduction pathway of β-catenin, we treated the reporter cells with 25 mM LiCl to stabilize β-catenin and activate Wnt signaling. The potential Wnt inhibitors identified from screening were validated by transfecting TOPFlash or FOPFlash plus control renilla reporters into HEK293T cells, and then treating the cells with DMSO or testing compounds in DMSO solution. The Wnt signaling was activated by LiCl or Wnt3A treatment.

[2] = test system: AMPK; experiment: Western blot of AMPK (T172) and ACC (S79) phosphorylation in CRC cells; type: cell-based, human; conditions: concentration not given
Experimental: Biochemistry. Western blotting: Cells were lysed in the appropriate volume of lysis buffer: 50 mM HEPES, 100 mM NaCl, 2 mM EDTA, 1% (v/v) glycerol, 50 mM NaF, 1 mM Na3VO4, 1% (v/v) Triton X-100, with protease inhibitors. The following antibodies were used: AMPK (Cell Signaling, 2532, Cell Signaling Technologies, Danver, Mass., USA), pAMPK (Cell Signaling, 2535), ACC (Cell Signaling, 3676), pACC (Cell Signaling, 11818), Actin (Sigma, A1978). Antibodies for Axin 2, c-Myc and Cyclin D1 have been described previously. ATP analysis: Cells growing in 12-well plates were treated with DMSO or inhibitors in DMSO solution and lysed by adding 1 mL boiling doubly distilled water. Supernatants were analyzed by luminescence using ATP Determination Kit (Invitrogen, A22066; Thermo Fisher Scientific, Waltham, Mass., USA).

[3] = test system: purified mitochondria from mouse liver; experiment: Uncoupling assay (OCR) using purified mitochondria from mouse livers; type: biochemical; conditions: 5 μM/1 μM
Experimental: All the steps were carried out at 4° C. or on ice. After mice were euthanized with CO2 followed by rapid decapitation, whole liver was quickly dissected out on a cold block and homogenized using a Teflon-glass dounce homogenizer containing isolation buffer (215 mM mannitol, 75 mM sucrose, 0.1% BSA, 20 mM HEPES, 1 mM EGTA, adjusted to pH 7.2 with KOH). The homogenate was transferred to a 2 mL-microcentrifuge tube and spun at 1,300×g for 3 min. The supernatant was transferred to a fresh 2 mL-microcentrifuge tube and spun at 13,000×g for 10 min. The supernatant was discarded, and the crude mitochondrial pellet was resuspended in a 1.5 mL-microcentrifuge tubes and pelleted again at 10,000×g for 10 min. The supernatant was discarded, and the mitochondrial pellets were resuspended in isolation buffer to obtain an approximate concentration ≥10 mg/mL of mitochondria. The absolute protein concentration was determined using a bicinchoninic acid (BCA) protein assay kit (Pierce, Cat #23,227) by recording absorbance at 560 nm on a Biotek Synergy HT plate reader (Winooski, Vt., USA).
Mitochondrial Bioenergetics Measurements. Mitochondrial bioenergetic measurements were carried out using a Seahorse XFe96 Extracellular Flux Analyzer (Agilent Technologies, Santa Clara, Calif., USA) to measure oxygen consumption rate (OCR) during various states of respiration. The OCR were measured in the presence of different substrates, inhibitors and uncouplers of the electron transport chain using previous methods with slight modifications. The stocks used for the assays were 500 mM pyruvate, 250 mM malate, and 30 mM adenosine diphosphate (ADP), and 1 M succinate (pH for all was adjusted to 7.2). […] Stock solutions of FH535, Y3, FH535-M, and Y3-M were prepared at 5 mM in 100% DMSO. As per the instructions from XFe96 Extracellular Flux kit, the sensor cartridge was hydrated with water and kept at 37° C. overnight before the experiment. One hour before the assay was conducted, water was removed from assay plates and XF calibrant was added before re-incubation. The injection ports A to D of the sensor cartridge were loaded with 25 μL of different combinations of the above substrates/inhibitors/uncouplers as follows. Before loading, the stocks were diluted appropriately in the respiration buffer (RB) (125 mM KCl, 0.1% BSA, 20 mM HEPES, 2 mM MgCl2, and 2.5 mM KH2PO4; pH 7.2) to get the final concentrations in the respiration chamber of 5 μM pyruvate, 2.5 μM malate, 10 μM of succinate and 1 μM ADP (via Port A), 1 μM oligomycin A (via Port B), 4 μM FCCP or 5 μM/1 μM FH535 or 5 μM/1 μM Y3 or 5 μM/1 μM FH535-M or 5 μM/1 μM Y3-M (via Port C) and 0.1 μM antimycin A (via Port D) starting with the initial volume of 175 μL RB in the chamber and diluting it to 9×, 10×, 11× and 12× with every injection through ports A to D, respectively. Once loaded, the sensor cartridge was placed into the Seahorse XFe96 Flux Analyzer for automated calibration. Seahorse Standard XFe96 assay plates were used for loading mitochondria. Initially total mitochondria were diluted to 6 μg/30 μL in RB and 30 μL was loaded in each well resulting in 6 μg mitochondria/well. The assay plates were centrifuged at 3,000 rpm for 4 min at 4° C. to adhere liver mitochondria at the bottom of the wells. After centrifugation, 145 μL RB (pre-incubated to 37° C.) was added without disturbing the mitochondrial layer to obtain a final volume of 175 μL per well. […]

[4] = test system: Huh7 cells; experiment: Western blot of autophagy markers LC3II and p62 in Huh7 cells; type: cell-based, human
Description: (§1) Primary antibodies are described in Table 1.

[5] = test system: Huh7 cells; experiment: Cyto-ID autophagy detection assay in Huh7 cells; type: cell-based, human; conditions: Huh7, 40 h, ±50 μM CQ
Experimental: Autophagy responses were monitored with the Cyto-ID autophagy detection reagent 2.0 (Enzo Life Sciences, USA) according to the manufacturer's instructions. Huh7 and PLC/PRF/5 cells were seeded in 12-well plates and treated the following day with drugs or DMSO vehicle control at the indicated concentrations. CQ was added to the corresponding wells to a final concentration of 50 μM 8 h prior harvesting. After 40 h of drug treatment, cells were collected and assessed for viability with Zombie Violet dye solution (BioLegend, USA) followed by Cyto-ID autophagy detection reagent staining. Flow cytometry analyses were performed in a BD LSRII at the Flow Cytometry and Cell Sorting Shared Resource Facility of the University of Kentucky Markey Cancer Center and data were analyzed with the FlowJo Software version 7.6.5 (Tree Star, USA). The autophagic flux was quantified by subtracting the Cyto-ID MFI value of the sample without CQ from the Cyto-ID MFI value of the sample with CQ for each condition according to the formula: […]

[6] = test system: Huh7 cells; experiment: [3H]-thymidine incorporation assay, Huh7; type: cell-based, human; conditions: Huh7, 72 h
Experimental: (§2) Huh7, PLC/PRF/5 and Hep3B cells were plated in 96-well plates at 3000-4000 cells/well, treated with the concentrations indicated of FH535 or FH535-N, as single agents or in combination with sorafenib, and cultured for 72 h. ^3H-thymidine incorporation assay was performed as described previously.

[7] = test system: PLC/PRF/5 cells; experiment: [3H]-thymidine incorporation assay, PLC/PRF/5; type: cell-based, human; conditions: PLC/PRF/5, 72 h
Experimental: as §2

[8] = test system: Hep3B cells; experiment: [3H]-thymidine incorporation assay, Hep3B; type: cell-based, human; conditions: 72 h
Experimental: as §2

[9] = test system: Wnt/β-catenin pathway; experiment: TOP-Flash TCF4-dependent dual luciferase reporter assay in Huh7 cells; type: cell-based, human; conditions: Huh7, 10 mM LiCl
Experimental: Cells were plated at 1×10^5 cells/well in 24-well plates and transiently transfected with 490 ng of luciferase-reporter plasmid and 10 ng of phRL-TK per well using the Turbofect transfection reagent (Thermo Scientific, USA). After 5-6 h post-transfection, cells were treated with drug(s) or DMSO vehicle control for 36 h in the presence or absence of LiCl (10 mM). Luciferase assays were performed using the Dual Luciferase Assay System (Promega, USA) according to manufacturer's instructions.

[10] = test system: Wnt/β-catenin target genes; experiment: Expression of downstream β-catenin targets in Huh7 cells (western blot, RT-qPCR); type: cell-based, human; conditions: Huh7, 36 h
Experimental: as §1
Total RNA was extracted with miRNeasy mini kit (Qiagen, Germany), and the corresponding cDNA was produced using iScript cDNA synthesis kit (BioRad, USA) from 1 μg of total RNA. Real time quantitative PCR (RT-qPCR) was performed using SsoAdvanced Universal SYBR Green supermix (BioRad, USA) with specific primers: p62 (SQSTM1: 5′-[…]-3′ (SEQ ID NO: 1) and 5′-[…]-3′ (SEQ ID NO: 2)); c-MYC (cMYC: 5′-[…]-3′ (SEQ ID NO: 3) and 5′-[…]-3′ (SEQ ID NO: 4)), Survivin (BIRC5, 5′-[…]-3′ (SEQ ID NO: 5) and 5′-[…]-3′ (SEQ ID NO: 6)), AXIN 2 (AXIN2: 5′-[…]-3′ (SEQ ID NO: 7) and 5′-[…]-3′ (SEQ ID NO: 8)), Cyclin D1 (5′-CCND1: […]-3′ (SEQ ID NO: 9) and 5′-[…]-3′ (SEQ ID NO: 10)), and b2-microglobulin (B2M: 5′-[…]-3′ (SEQ ID NO: 11) and 5′-[…]-3′ (SEQ ID NO: 12)). Transcript levels were normalized to β-actin or […] level as indicated using the ΔΔCt method.

[11] = test system: Huh7 cells; experiment: Annexin V/PI apoptosis assay, Huh7; type: cell-based, human; conditions: Huh7, 48 h
Experimental: (§3) Apoptosis assay was performed in Huh7 and PLC/PRF/5 cells treated 48 h with DMSO vehicle control or the indicated doses of FH535, FH535-N alone or in combination with sorafenib. Cells were harvested and stained with the APC Annexin V apoptosis detection kit with PI (BioLegend, USA) according to the manufacturing instructions followed by flow cytometry analysis. Flow cytometry data was acquired with an LSRII instrument (BD-Biosciences) and analyzed with FlowJo software (Tree Star).

[12] = test system: PLC/PRF/5 cells; experiment: Annexin V/PI apoptosis assay, PLC/PRF/5; type: cell-based, human; conditions: PLC/PRF/5, 48 h
Experimental: as §3

[13] = test system: Huh7 cells; experiment: Seahorse mitochondrial stress test (OCR) in Huh7 cells; type: cell-based, human; conditions: Huh7, 24 h
Experimental: Oxygen Consumption Rates (OCR) were measured on an XF-96 Extracellular Flux Analyzer (Seahorse Bioscience) using the protocol and conditions optimized for HCC cells as previously described by our group. Briefly, the experiments were performed by seeding 10,000 and 20,000 Huh7 cells per well in XFe 96 well-plates 36 h before the experiment. Cells were treated for 24 h with FH535, FH535-N or vehicle control. In OCR experiments the media was supplemented with 25 mM Glucose and 1 mM Pyruvate just before the assay. After minimal incubation time (˜20-30 min in non-CO2 37° C. incubator) mitochondrial stress test was initiated. […] All reagents used in the Seahorse experiments were purchased from Sigma-Aldrich. Analyses of data were performed with Wave 2.2 software (Seahorse Bioscience), Excel (Microsoft Office 2013) and Prism 7.0 (GraphPad Software).

O=[N+]([O-])c1ccc(NS(=O)(=O)c2cc(Cl)ccc2Cl)c2ccccc12 [Y3, 2,5-dichloro-N-(4-nitronaphthalen-1-yl)benzenesulfonamide]
inhibition of Wnt signaling [1]: inhibited Wnt signaling | AMPK activation [2]: strongly activated AMPK | uncoupling: OCR blocked by oligomycin [3]: increased OCR in dose-dependent manner | accumulation of LC3II in the presence of CQ (autophagic flux, ΔLC3II) ([4]; Huh7, 50 μM CQ 8 h): reduced at higher doses | LC3II protein levels ([4]; Huh7, 40 h): increased | p62 protein levels ([4]; Huh7, 40 h): increased | autophagic flux (Cyto-ID) [5]: reduction in the autophagic flux | cell proliferation (3H-thymidine incorporation) [6]: inhibited cell proliferation | cell proliferation (3H-thymidine incorporation) [7]: inhibited cell proliferation | cell proliferation (3H-thymidine incorporation) [8]: inhibited cell proliferation | Wnt/β-catenin transcriptional activity (TOP-Flash) [9]: reduced the Wnt/β-catenin transcriptional activity | expression of downstream Wnt/β-catenin target genes [10]: reduced | apoptosis (Annexin V/PI) [11]: significant increased rate of apoptosis | apoptosis (Annexin V/PI) [12]: significant increased rate of apoptosis | Proton Leak [13]: enhanced Proton Leak
